Legend:
[1] = molecular target: T1, AHR (Homo sapiens, UniProt P35869); assay: In vitro assay 2: agonism in human cell line (transactivation assay, U87 cells, DRE firefly luciferase reporter); assay type: cell-based; parameters: host or cells: U87 glioblastoma cells, stably transfected with DRE firefly luciferase and renilla reporter constructs; details: no kynurenic acid, 20 hours, read-out: Assay 2: AHR-luc Hum Agonism IC50
T1 sequence (P35869 11-848): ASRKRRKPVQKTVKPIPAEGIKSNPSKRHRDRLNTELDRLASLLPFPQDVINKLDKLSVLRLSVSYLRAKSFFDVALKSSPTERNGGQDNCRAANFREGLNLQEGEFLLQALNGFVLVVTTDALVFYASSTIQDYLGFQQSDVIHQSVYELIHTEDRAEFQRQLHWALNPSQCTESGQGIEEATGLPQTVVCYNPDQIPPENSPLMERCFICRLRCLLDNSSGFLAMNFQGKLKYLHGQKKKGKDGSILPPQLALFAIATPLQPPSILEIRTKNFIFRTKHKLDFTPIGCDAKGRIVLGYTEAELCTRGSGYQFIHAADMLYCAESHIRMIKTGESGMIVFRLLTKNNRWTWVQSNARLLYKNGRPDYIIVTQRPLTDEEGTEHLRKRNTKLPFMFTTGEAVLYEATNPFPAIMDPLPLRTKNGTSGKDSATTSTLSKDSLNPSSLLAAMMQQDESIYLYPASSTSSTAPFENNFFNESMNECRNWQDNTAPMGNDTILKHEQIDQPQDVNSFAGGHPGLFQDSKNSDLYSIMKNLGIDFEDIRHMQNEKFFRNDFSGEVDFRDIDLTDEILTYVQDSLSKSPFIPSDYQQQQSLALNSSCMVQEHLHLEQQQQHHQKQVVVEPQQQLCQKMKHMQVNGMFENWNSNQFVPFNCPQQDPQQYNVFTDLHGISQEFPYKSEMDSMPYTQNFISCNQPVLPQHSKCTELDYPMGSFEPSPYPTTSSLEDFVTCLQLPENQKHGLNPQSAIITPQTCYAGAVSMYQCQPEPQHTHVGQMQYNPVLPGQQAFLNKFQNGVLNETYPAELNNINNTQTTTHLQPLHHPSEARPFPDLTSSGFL
Method in brief: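 Agonist readout: DRE firefly luciferase, with constitutive renilla reporter, in stably transfected U87 cells expressing AHR endogenously. Normalization used positive control (300 uM kynurenic acid) and negative control.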

[2] = molecular target: T1, AHR; assay: In vitro assay 1: antagonism in human cell line (transactivation assay, U87 cells prestimulated with kynurenic acid, DRE firefly luciferase reporter); assay type: cell-based; parameters: host or cells: U87 glioblastoma cells, stably transfected with DRE firefly luciferase and renilla reporter constructs; details: 150 uM kynurenic acid, 20 hours, read-out: Assay 1: AHR-luc Hum Antagonism IC50
Method in brief: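 Antagonism measured after kynurenic acid prestimulation in U87 cells that express AHR endogenously and stably harbor a firefly luciferase gene under DRE control plus a constitutive renilla construct. Positive and negative controls served for normalization.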

IC50 [1] [nM] | IC50 [2] [nM] | SMILES
> 20000 | 41.9 | O=C(NCC1(O)CC1)c1cc(-c2ccc(Cl)cc2)nn(-c2cccnc2)c1=O [Example 263, 6-(4-Chlorophenyl)-N-[(1-hydroxycyclopropyl)methyl]-3-oxo-2-(pyridin-3-yl)-2,3-dihydropyridazine-4-carboxamide]
> 20000 | 83.4 | COC[C@@H](CO)NC(=O)c1cc(-c2ccc(Cl)cc2)nn(-c2cccnc2)c1=O [Example 75, (−)-6-(4-Chlorophenyl)-N-[(2R)-1-hydroxy-3-methoxypropan-2-yl]-3-oxo-2-(pyridin-3-yl)-2,3-dihydropyridazine-4-carboxamide]
> 20000 | 602 | C[C@@H](CO)NC(=O)c1cc(-c2ccc(CF)cc2)nn(-c2cccnc2)c1=O [Example 285, 6-[4-(Fluoromethyl)phenyl]-N-[(2S)-1-hydroxypropan-2-yl]-3-oxo-2-(pyridin-3-yl)-2,3-dihydropyridazine-4-carboxamide]
> 20000 | 5.91 | C[C@H](NC(=O)c1cc(-c2ccc(C(F)(F)F)cc2)nn(-c2cccnc2)c1=O)C(C)(C)O [Example 226, N-[(2S)-3-Hydroxy-3-methylbutan-2-yl]-3-oxo-2-(pyridin-3-yl)-6-[4-(trifluoromethyl)phenyl]-2,3-dihydropyridazine-4-carboxamide]
> 20000 | 94.5 | C[C@@H](CO)NC(=O)c1cc(-c2ccc(OC(F)F)cc2)nn(-c2cccnc2)c1=O [Example 332, 6-[4-(Difluoromethoxy)phenyl]-N-[(2S)-1-hydroxypropan-2-yl]-3-oxo-2-(pyridin-3-yl)-2,3-dihydropyridazine-4-carboxamide]
> 20000 | 4.38 | O=C(N[C@@H]1CSC[C@@H]1O)c1cc(-c2ccc(C(F)(F)F)cc2)nn(-c2cccnc2)c1=O (single isomer, unassigned) [Example 291, (−)-N-cis-4-hydroxy-tetrahydrothiophen-3-yl-3-oxo-2-(pyridin-3-yl)-6-[4-(trifluoromethyl)phenyl]-2,3-dihydropyridazine-4-carboxamide]
> 20000 | 48.1 | O=C(NC(CO)C1CC1)c1cc(-c2ccc(Cl)cc2)nn(-c2cccnc2)c1=O (single isomer, unassigned; (+)) [Example 91, (+)-6-(4-Chlorophenyl)-N-(1-cyclopropyl-2-hydroxyethyl)-3-oxo-2-(pyridin-3-yl)-2,3-dihydropyridazine-4-carboxamide]
> 20000 | 73.9 | Cn1cc(-n2nc(-c3ccc(OC(F)F)cc3)cc(C(=O)NC(C(C)(C)O)C(F)(F)F)c2=O)cn1 (single isomer, unassigned) [Example 307, 6-[4-(Difluoromethoxy)phenyl]-2-(1-methyl-1H-pyrazol-4-yl)-3-oxo-N-(1,1,1-trifluoro-3-hydroxy-3-methylbutan-2-yl)-2,3-dihydropyridazine-4-carboxamide]
> 20000 | 92.7 | C[C@]1(O)CCC[C@H]1NC(=O)c1cc(-c2ccc(OC(F)(F)F)cc2)nn(-c2cccnc2)c1=O (single isomer, unassigned) [Example 330, N-[(cis)-2-hydroxy-2-methylcyclopentyl]-3-oxo-2-(pyridin-3-yl)-6-[4-(trifluoromethoxy)phenyl]-2,3-dihydropyridazine-4-carboxamide]

The remaining lines, values behind:

SMILES | IC50 [1] [nM] | IC50 [2] [nM]
Cn1cc(-n2nc(-c3ccc(Cl)cc3)cc(C(=O)N[C@H]3CCCC[C@H]3O)c2=O)cn1 [Example 48, 6-(4-Chlorophenyl)-N-[(1S,2R)-2-hydroxycyclohexyl]-2-(1-methyl-1H-pyrazol-4-yl)-3-oxo-2,3-dihydropyridazine-4-carboxamide] | > 20000 | 2.49
Cn1cc(-n2nc(-c3ccc(C(F)(F)F)cc3)cc(C(=O)N[C@@H]3COC[C@@H]3O)c2=O)cn1 (relative stereo) [Example 215, N-cis-4- Hydroxytetrahyd rofuran-3-yl-2-(1-methyl-1H-pyrazol-4-yl)-3-oxo-6-[4-(trifluoromethyl)phenyl]-2,3-dihydropyridazine-4-carboxamide] | > 20000 | 2.21
O=C(N[C@@H]1CC[C@@H]1O)c1cc(-c2ccc(Cl)cc2)nn(-c2cccnc2)c1=O (relative stereo) [Example 258, 6-(4-Chlorophenyl)-N-cis-2-hydroxycyclobutyl-3-oxo-2-(pyridin-3-yl)-2,3-dihydropyridazine-4-carboxamide] | > 20000 | 27.5
Cn1cc(-n2nc(-c3ccc(Cl)cc3)cc(C(=O)NC(CO)C(F)(F)F)c2=O)cn1 (racemic) [Example 33, 6-(4-Chlorophenyl)-2-(1-methyl-1H-pyrazol-4-yl)-3-oxo-N-[(2RS)-1,1,1-trifluoro-3-hydroxypropan-2-yl]-2,3-dihydropyridazine-4-carboxamide] | > 20000 | 2.66
CC(C)(O)CNC(=O)c1cc(-c2ccc(Cl)cc2)nn(-c2cncnc2)c1=O [Example 277, 6-(4-Chlorophenyl)-N-(2-hydroxy-2-methylpropyl)-3-oxo-2-(pyrimidin-5-yl)-2,3-dihydropyridazine-4-carboxamide] | > 20000 | 139
COC[C@@H](CO)NC(=O)c1cc(-c2ccc(Cl)cc2)nn(-c2cncc(F)c2)c1=O [Example 85, 6-(4-Chlorophenyl)-2-(5-fluoropyridin-3-yl)-N-[(2R)-1-hydroxy-3-methoxypropan-2-yl]-3-oxo-2,3-dihydropyridazine-4-carboxamide] | > 20000 | 36
COCC(O)CNC(=O)c1cc(-c2ccc(Cl)cc2)nn(-c2cnn(C)c2)c1=O (single isomer, unassigned; (+)) [Example 26, (+)-6-(4-Chlorophenyl)-N-(2-hydroxy-3-methoxypropyl)-2-(1-methyl-1H-pyrazol-4-yl)-3-oxo-2,3-dihydropyridazine-4-carboxamide] | > 20000 | 87.5
Cn1cc(-n2nc(-c3ccc(Cl)cc3)cc(C(=O)N[C@@H](CO)C(F)(F)F)c2=O)cn1 [Example 34, (−)-6-(4-Chlorophenyl)-2-(1-methyl-1H-pyrazol-4-yl)-3-oxo-N-[(2S)-1,1,1-trifluoro-3-hydroxypropan-2-yl]-2,3-dihydropyridazine-4-carboxamide] | > 20000 | 130
O=C(NC[C@H](O)C(F)(F)F)c1cc(-c2ccc(Cl)cc2)nn(-c2cnoc2)c1=O [Example 235, 6-(4-Chlorophenyl)-2-(1,2-oxazol-4-yl)-3-oxo-N-[(2S)-3,3,3-trifluoro-2-hydroxypropyl]-2,3-dihydropyridazine-4-carboxamide] | > 20000 | 8.87
Cn1cc(-n2nc(-c3ccc(Cl)cc3)cc(C(=O)NC[C@@H](O)CO)c2=O)cn1 [Example 28, 6-(4-Chlorophenyl)-N-[(2R)-2,3-dihydroxypropyl]-2-(1-methyl-1H-pyrazol-4-yl)-3-oxo-2,3-dihydropyridazine-4-carboxamide] | > 20000 | 293
C[C@@H](CO)NC(=O)c1cc(-c2ccc(C(F)(F)F)nc2)nn(-c2cnsc2)c1=O [Example 251, N-[(2S)-1-Hydroxypropan-2-yl]-3-oxo-2-(1,2-thiazol-4-yl)-6-[6-(trifluoromethyl)pyridin-3-yl]-2,3-dihydropyridazine-4-carboxamide] | > 20000 | 17.9
O=C(N[C@H](CO)C1CC1)c1cc(-c2ccc(C(F)(F)F)nc2)nn(-c2cncc(F)c2)c1=O [Example 339, N-[(1S)-1-Cyclopropyl-2-hydroxyethyl]-2-(5-fluoropyridin-3-yl)-3-oxo-6-[6-(trifluoromethyl)pyridin-3-yl]-2,3-dihydropyridazine-4-carboxamide] | > 20000 | 27.6
CC(C)(O)CNC(=O)c1cc(-c2ccc(C(F)(F)F)nc2)nn(-c2cncc(F)c2)c1=O [Example 344, 2-(5-Fluoropyridin-3-yl)-N-(2-hydroxy-2-methylpropyl)-3-oxo-6-[6-(trifluoromethyl)pyridin-3-yl]-2,3-dihydropyridazine-4-carboxamide] | > 20000 | 174
O=C(N[C@H]1CCC[C@H]1O)c1cc(-c2ccc(Cl)cc2)nn(-c2ccnnc2)c1=O [Example 167, 3-(4-Chlorophenyl)-N-[(1S,2R)-2-hydroxycyclopentyl]-6-oxo-6H-1,4′-bipyridazine-5-carboxamide] | > 20000 | 239
